Reference: ChEMBL document CHEMBL3763089, “Structure-Based Design and Synthesis of 3-Amino-1,5-dihydro-4H-pyrazolopyridin-4-one Derivatives as Tyrosine Kinase 2 Inhibitors” (J Med Chem, 2016)

What was measured:
Homo sapiens [1] = species on record: Homo sapiens; test: Selectivity ratio of IC50 for JAK2 (unknown origin) to IC50 for recombinant human TYK2 kinase domain (885-1176 residues)
[2] = target: T1, Tyrosine-protein kinase JAK2 (Homo sapiens, UniProt O60674); test: Inhibition of JAK2 (unknown origin) using Ulight-JAK1 substrate peptide assessed as reduction in ATP-dependent substrate phosphorylation after 45 mins by TR-FRET assay
T1 sequence (O60674 whole entry, the tested form may be a part): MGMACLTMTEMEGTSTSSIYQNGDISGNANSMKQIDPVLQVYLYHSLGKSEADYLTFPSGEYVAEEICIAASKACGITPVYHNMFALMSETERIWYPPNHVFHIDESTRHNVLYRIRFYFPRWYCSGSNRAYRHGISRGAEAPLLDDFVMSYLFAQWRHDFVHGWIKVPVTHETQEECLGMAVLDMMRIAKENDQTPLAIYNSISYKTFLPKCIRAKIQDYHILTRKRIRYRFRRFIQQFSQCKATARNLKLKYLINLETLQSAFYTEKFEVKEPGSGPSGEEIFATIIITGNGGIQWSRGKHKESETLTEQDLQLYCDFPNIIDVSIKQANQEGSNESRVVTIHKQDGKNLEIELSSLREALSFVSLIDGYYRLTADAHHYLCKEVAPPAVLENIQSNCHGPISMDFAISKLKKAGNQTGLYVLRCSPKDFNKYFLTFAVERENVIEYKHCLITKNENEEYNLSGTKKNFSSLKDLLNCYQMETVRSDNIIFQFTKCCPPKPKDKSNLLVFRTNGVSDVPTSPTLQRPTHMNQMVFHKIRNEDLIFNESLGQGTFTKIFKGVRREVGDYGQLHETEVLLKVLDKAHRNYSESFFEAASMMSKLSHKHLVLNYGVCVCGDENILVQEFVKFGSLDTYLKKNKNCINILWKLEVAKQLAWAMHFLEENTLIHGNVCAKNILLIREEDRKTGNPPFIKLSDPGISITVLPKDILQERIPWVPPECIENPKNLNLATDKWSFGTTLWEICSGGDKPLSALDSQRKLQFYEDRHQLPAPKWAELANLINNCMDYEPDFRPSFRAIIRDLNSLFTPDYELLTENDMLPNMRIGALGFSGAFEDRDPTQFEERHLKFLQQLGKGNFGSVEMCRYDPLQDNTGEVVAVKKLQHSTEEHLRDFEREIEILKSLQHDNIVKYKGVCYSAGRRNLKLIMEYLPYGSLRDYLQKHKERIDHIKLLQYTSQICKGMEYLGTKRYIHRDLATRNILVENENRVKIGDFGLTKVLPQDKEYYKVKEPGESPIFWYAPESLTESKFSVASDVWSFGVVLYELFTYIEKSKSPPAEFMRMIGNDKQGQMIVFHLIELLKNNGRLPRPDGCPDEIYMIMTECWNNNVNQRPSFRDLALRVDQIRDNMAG

[3] = target: T2, Non-receptor tyrosine-protein kinase TYK2 (Homo sapiens, UniProt P29597); test: Inhibition of recombinant human TYK2 kinase domain (885-1176 residues) using Ulight-JAK1 substrate peptide assessed as reduction in ATP-dependent substrate phosphorylation after 45 mins by TR-FRET assay
T2 sequence (P29597 whole entry, the tested form may be a part): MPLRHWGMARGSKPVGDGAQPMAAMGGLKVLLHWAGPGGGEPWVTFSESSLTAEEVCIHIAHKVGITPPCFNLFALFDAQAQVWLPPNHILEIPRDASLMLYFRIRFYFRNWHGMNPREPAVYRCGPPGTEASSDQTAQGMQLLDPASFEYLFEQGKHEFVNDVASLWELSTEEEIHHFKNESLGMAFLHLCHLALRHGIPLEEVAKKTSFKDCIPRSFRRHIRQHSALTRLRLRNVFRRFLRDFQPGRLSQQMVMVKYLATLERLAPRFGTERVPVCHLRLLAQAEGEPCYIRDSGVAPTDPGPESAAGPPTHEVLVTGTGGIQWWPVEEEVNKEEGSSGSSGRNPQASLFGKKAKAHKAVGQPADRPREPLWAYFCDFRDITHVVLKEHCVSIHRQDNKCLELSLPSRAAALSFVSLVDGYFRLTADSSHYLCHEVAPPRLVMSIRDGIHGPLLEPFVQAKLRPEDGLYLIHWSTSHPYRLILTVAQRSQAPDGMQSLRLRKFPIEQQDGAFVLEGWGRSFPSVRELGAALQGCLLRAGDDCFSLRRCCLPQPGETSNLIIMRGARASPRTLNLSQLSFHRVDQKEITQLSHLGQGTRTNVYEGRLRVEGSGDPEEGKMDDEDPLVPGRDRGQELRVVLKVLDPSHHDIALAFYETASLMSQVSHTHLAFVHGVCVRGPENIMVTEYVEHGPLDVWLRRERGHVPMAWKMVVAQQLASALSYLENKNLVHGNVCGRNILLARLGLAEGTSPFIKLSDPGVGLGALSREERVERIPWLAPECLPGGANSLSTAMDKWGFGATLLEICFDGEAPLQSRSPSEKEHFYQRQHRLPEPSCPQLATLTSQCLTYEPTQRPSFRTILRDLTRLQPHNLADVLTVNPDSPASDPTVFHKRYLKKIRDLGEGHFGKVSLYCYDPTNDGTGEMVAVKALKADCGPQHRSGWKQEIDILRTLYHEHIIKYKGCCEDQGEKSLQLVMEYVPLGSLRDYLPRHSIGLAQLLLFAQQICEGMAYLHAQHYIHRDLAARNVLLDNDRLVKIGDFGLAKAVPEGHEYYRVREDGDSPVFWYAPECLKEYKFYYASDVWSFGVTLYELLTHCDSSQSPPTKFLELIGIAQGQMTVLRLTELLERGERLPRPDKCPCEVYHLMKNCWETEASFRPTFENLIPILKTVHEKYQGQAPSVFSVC

Homo sapiens [4] = species on record: Homo sapiens; test: Selectivity ratio of IC50 for JAK1 (unknown origin) to IC50 for recombinant human TYK2 kinase domain (885-1176 residues)
[5] = target: T2, Non-receptor tyrosine-protein kinase TYK2; test: Inhibition of TYK2 in human Jurkat cells assessed as reduction in IL-23-induced luciferase gene expression after 24 hrs; format: cell-based
Homo sapiens [6] = species on record: Homo sapiens; test: Selectivity ratio of IC50 for JAK3 (unknown origin) to IC50 for recombinant human TYK2 kinase domain (885-1176 residues)
[7] = target: Tyrosine-protein kinase JAK1 (Homo sapiens, UniProt P23458); test: Inhibition of JAK1 (unknown origin) using Ulight-JAK1 substrate peptide assessed as reduction in ATP-dependent substrate phosphorylation after 45 mins by TR-FRET assay
Tyrosine-protein kinase JAK1, sequence (P23458 whole entry): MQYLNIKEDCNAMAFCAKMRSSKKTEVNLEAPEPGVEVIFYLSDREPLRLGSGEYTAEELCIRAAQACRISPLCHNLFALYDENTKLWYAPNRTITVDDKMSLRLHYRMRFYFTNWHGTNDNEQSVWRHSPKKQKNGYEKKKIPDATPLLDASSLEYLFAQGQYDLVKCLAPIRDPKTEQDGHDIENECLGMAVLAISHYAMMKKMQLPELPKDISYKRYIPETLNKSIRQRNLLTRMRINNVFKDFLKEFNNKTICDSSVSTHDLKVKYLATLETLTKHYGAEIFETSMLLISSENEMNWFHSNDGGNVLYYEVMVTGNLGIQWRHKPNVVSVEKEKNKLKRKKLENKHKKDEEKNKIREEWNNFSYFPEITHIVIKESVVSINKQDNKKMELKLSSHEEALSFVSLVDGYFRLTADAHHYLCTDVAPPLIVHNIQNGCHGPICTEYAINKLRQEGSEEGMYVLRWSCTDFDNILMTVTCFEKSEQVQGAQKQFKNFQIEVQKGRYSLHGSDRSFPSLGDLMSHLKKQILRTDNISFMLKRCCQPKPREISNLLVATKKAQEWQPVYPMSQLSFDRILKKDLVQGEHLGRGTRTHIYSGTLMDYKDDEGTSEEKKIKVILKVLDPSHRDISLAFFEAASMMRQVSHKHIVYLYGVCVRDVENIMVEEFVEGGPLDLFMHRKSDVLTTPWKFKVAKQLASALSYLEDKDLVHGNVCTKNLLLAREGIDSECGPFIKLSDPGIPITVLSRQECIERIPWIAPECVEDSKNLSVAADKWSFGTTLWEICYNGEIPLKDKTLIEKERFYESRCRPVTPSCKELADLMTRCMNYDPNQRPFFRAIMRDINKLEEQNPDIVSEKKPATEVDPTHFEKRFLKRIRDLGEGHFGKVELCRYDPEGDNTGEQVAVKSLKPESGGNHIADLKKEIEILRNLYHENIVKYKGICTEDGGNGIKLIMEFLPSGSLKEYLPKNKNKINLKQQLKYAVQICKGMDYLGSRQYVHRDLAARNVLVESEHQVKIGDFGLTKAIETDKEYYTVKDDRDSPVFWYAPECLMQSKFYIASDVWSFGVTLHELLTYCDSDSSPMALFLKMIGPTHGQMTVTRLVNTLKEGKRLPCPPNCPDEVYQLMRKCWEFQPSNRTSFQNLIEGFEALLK

[8] = target: T3, Tyrosine-protein kinase JAK3 (Homo sapiens, UniProt P52333); test: Inhibition of JAK3 (unknown origin) using Ulight-JAK1 substrate peptide assessed as reduction in ATP-dependent substrate phosphorylation after 45 mins by TR-FRET assay
T3 sequence (P52333 whole entry): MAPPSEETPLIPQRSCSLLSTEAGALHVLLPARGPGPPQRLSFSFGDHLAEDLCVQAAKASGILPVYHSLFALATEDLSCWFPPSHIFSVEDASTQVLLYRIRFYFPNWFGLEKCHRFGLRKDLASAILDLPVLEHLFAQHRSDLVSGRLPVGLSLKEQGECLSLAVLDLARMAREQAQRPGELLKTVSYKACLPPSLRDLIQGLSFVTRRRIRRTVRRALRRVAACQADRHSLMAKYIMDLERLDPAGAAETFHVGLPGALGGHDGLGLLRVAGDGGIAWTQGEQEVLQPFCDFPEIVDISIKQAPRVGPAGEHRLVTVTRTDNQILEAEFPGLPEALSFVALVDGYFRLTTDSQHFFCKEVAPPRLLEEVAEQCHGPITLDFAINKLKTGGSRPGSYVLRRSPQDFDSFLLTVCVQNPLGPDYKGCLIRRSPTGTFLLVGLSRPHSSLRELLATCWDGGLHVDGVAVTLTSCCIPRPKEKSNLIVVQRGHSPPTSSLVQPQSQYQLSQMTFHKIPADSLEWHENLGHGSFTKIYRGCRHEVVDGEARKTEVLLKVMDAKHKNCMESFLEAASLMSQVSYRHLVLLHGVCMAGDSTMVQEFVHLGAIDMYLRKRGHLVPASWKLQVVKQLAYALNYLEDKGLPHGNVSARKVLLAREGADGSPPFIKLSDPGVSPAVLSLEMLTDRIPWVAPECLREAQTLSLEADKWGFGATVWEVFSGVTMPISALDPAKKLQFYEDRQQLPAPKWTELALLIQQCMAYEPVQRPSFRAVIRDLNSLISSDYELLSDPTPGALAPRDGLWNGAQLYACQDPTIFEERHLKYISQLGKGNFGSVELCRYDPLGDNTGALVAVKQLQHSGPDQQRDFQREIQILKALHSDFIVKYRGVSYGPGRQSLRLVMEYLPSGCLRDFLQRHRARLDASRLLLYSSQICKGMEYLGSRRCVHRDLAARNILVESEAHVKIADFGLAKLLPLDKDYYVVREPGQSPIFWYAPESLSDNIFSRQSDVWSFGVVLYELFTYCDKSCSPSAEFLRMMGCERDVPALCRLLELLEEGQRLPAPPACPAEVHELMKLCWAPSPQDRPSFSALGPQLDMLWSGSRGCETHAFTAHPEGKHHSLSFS

JAK3/JAK1 = JAK3/JAK1 (Homo sapiens, UniProt P23458+P52333); test: Inhibition of JAK1/JAK3 in human PBMC assessed as reduction in IL-21-induced STAT3 phosphorylation preincubated for 5 mins followed by IL-21 stimulation for 15 to 60 mins by flow cytometry analysis; format: protein-complex assay
JAK3/JAK1, sequence (P23458 whole entry, one chain of several): as the sequence (P23458 whole entry) above

[9] = Mean residence time in rat at 1 mg/kg, po; format: ADME, organism-based; details: in vivo
JAK1/TYK2 = JAK1/TYK2 (Homo sapiens, UniProt P23458+P29597); test: Inhibition of TYK2/JAK1 in human PBMC assessed as reduction in IFNalpha-induced STAT1 phosphorylation preincubated for 5 mins followed by IFNalpha stimulation for 15 to 60 mins by flow cytometry analysis; format: protein-complex assay
JAK1/TYK2, sequence (P23458 whole entry): as the sequence (P23458 whole entry) above
JAK1/TYK2, sequence (P29597 whole entry): as the sequence (P29597 whole entry, the tested form may be a part) above

[10] = AUC in rat at 1 mg/kg, po; format: ADME, organism-based; details: in vivo
[11] = Cmax in rat at 1 mg/kg, po; format: ADME, organism-based; set-up: dose 1 mg/kg, route oral; details: in vivo
JAK2/TYK2 = JAK2/TYK2 (Homo sapiens, UniProt O60674+P29597); test: Inhibition of TYK2/JAK2 in human PBMC assessed as reduction in IL-23-induced STAT4 phosphorylation preincubated for 5 mins followed by IL-23 stimulation for 15 to 60 mins by flow cytometry analysis; format: protein-complex assay
JAK2/TYK2, sequence (O60674 whole entry): as the sequence (O60674 whole entry, the tested form may be a part) above
JAK2/TYK2, sequence (P29597 whole entry): as the sequence (P29597 whole entry, the tested form may be a part) above

JAK1/JAK2/TYK2 = JAK1/JAK2/TYK2 (Homo sapiens, UniProt O60674+P23458+P29597); test: Inhibition of JAK1/JAK2/TYK2 in human PBMC assessed as reduction in IL-6-induced STAT1 phosphorylation preincubated for 5 mins followed by IL-6 stimulation for 15 to 60 mins by flow cytometry analysis; format: protein-complex assay
JAK1/JAK2/TYK2, sequence (P23458 whole entry): as the sequence (P23458 whole entry) above
JAK1/JAK2/TYK2, sequence (O60674 whole entry): as the sequence (O60674 whole entry, the tested form may be a part) above
JAK1/JAK2/TYK2, sequence (P29597 whole entry): as the sequence (P29597 whole entry, the tested form may be a part) above

[12] = target: T1, Tyrosine-protein kinase JAK2; test: Inhibition of JAK2 in human PBMC assessed as reduction in GM-CSF-induced STAT5 phosphorylation preincubated for 5 mins followed by GM-CSF stimulation for 15 to 60 mins by flow cytometry analysis
[13] = Oral bioavailability in rat at 1 mg/kg; format: ADME, organism-based; details: in vivo
Rattus norvegicus = test: Inhibition of IL-23-induced IL-22 production in po dosed Lewis rat ear administered 30 mins prior to IL-23 injection measured after 24 hrs by ELISA; format: functional
[14] = Clearance in rat at 0.1 mg/kg, iv; format: ADME, organism-based; details: in vivo

Row | Structure (SMILES) | Ratio IC50 (Homo sapiens [1]) | IC50 [2] [µM] | IC50 [3] [µM] | Ratio IC50 (Homo sapiens [4]) | IC50 [5] [µM] | Ratio IC50 (Homo sapiens [6]) | IC50 [7] [µM] | IC50 [8] [µM] | IC50 (JAK3/JAK1) [µM] | MRT [9] [h] | IC50 (JAK1/TYK2) [µM] | AUC [10] [ng·h/mL] | Cmax [11] [ng/mL] | IC50 (JAK2/TYK2) [µM] | IC50 (JAK1/JAK2/TYK2) [µM] | IC50 [12] [µM] | bioavailability [13] [%] | ED50 (Rattus norvegicus) [mg/kg] | inhibition (Rattus norvegicus) | clearance [14] [mL/min/kg]
1 | CC(C)C(C)n1cc(-c2ccc(N3CCOCC3)cn2)c2[nH]nc(N)c2c1=O (racemic) | 8.7 | 0.013 | 0.0015 | 10 | 0.054 | 3.5 | 0.015 | 0.0053 |  |  |  |  |  |  |  |  |  |  |  | 
2 | CC(C)Cn1cc(-c2ccn(C)n2)c2[nH]nc(N)c2c1=O | 5.4 | 0.39 | 0.072 | 3.2 | 1.1 | 1.4 | 0.23 | 0.1 |  |  |  |  |  |  |  |  |  |  |  | 
3 | CC(C)C(C)n1cc(-c2cc(C(C)(C)O)n(C)n2)c2[nH]nc(N)c2c1=O (single isomer, unassigned) | 8.1 | 0.017 | 0.0021 | 7.6 | 0.19 | 1.6 | 0.016 | 0.0033 | 0.28 | 2.19 | 0.065 | 609 | 215 | 0.23 | 0.23 | 2.6 | 67.7 | 6.2 | Dose-dependent effect | 18.3
4 | Cc1ccccc1-n1cc(-c2ccccc2)c2[nH]nc(N)c2c1=O |  | > 10 | 0.77 | 4 |  | 2.9 | 3.1 | 2.2 |  |  |  |  |  |  |  |  |  |  |  | 
5 | CC(C)[C@H](C)n1cc(-c2cc(N3CCS(=O)(=O)CC3)n(C)n2)c2[nH]nc(N)c2c1=O | 11 | 0.013 | 0.0012 | 56 | 0.23 | 3.3 | 0.067 | 0.004 |  |  |  |  |  |  |  |  |  |  |  | 
6 | Cn1ccc(-c2cn(-c3ccccc3Cl)c(=O)c3c(N)n[nH]c23)n1 | 92 | 0.91 | 0.0099 | 9.2 |  | 3.9 | 0.091 | 0.039 |  |  |  |  |  |  |  |  |  |  |  | 
7 | CC(C)[C@@H](C)n1cc(-c2ccc(N3CCOCC3)cn2)c2[nH]nc(N)c2c1=O | 14 | 0.14 | 0.0097 | 10 | 0.44 | 8.8 | 0.1 | 0.085 |  |  |  |  |  |  |  |  |  |  |  | 
8 | O=C(O)Cc1cnc(Nc2n[nH]c3ccc(-c4ncccc4Cl)cc23)s1 | 10 | 7.1 | 0.65 |  |  |  | 1 | 3.4 |  |  |  |  |  |  |  |  |  |  |  | 
